One compound from ChEMBL document CHEMBL6120986, “In silico inspired design of urea noscapine congeners as anticancer agents: Chemical synthesis and experimental evaluation using breast cancer cells and a xenograft mouse model” (Eur J Med Chem, 2025) can be followed below.

One series has as its system MCF7. Kind of series: Antitumor activity against human MCF7 cells xenografted in BALB/c athymic mouse assessed as reduction in tumor volume at 150 mg/kg, po administrated for 30 days (reference value: 1.63 cm^3). It is filed as functional. The following applies: time 30 day. Background: In xenograft studies the graft and the host belong to different species.
The test system of series [1] is MDA-MB-231. Kind of series: Induction of cell cycle arrest in human MDA-MB-231 cells assessed as accumulation of hypodiploid cells at sub-G1 phase at 6.65 uM IC50 incubated for 72 hrs by FACS analysis. Type of series: functional, cell-based. For orientation: Flow cytometry measures light scatter and fluorescence of single cells or particles in a stream.
Series [2] relates to MDA-MB-231. Kind of series: Induction of apoptosis in human MDA-MB-231 cells assessed as early apoptotic cells at 6.56 uM incubated for 72 hrs by Annexin/FITC based FACS analysis (reference value: 2%). Type of series: functional.
A short description of series [3]: Toxicity in female BALB/c athymic mouse assessed as bilirubin indirect level at 150 mg/kg/day, po (reference value: 3.05 +/- 0.32 mg/dl). It is filed as organism-based. The following applies: in vivo.
Series [4] is described as follows: Toxicity in female BALB/c athymic mouse assessed as potassium level at 150 mg/kg/day, po (reference value: 3.30 +/- 0.83 mEq/L). The conditions noted are these: in vivo. Type of series: organism-based.
Series [5] is described as follows: Toxicity in female BALB/c athymic mouse assessed as creatinine level at 150 mg/kg/day, po (reference value: 0.690 +/- 0.05 mg/dl). The following applies: in vivo. It is filed as organism-based.
Series [6] concerns MDA-MB-231. Description: Induction of intracellular ROS generation in human MDA-MB-231 cells assessed as increase in fluorescence intensity at 6.56 uM incubated for 48 hrs by H2DCFDA fluorescence assay. It is filed as functional, cell-based.
The test system of series [7] is MDA-MB-231. Description: Induction of apoptosis in human MDA-MB-231 cells assessed as formation of apoptotic bodies at 6.65 uM (IC50) measured after 72 hrs by fluorescence microscopic analysis. It is filed as functional, cell-based.
Series [8] is described as follows: Toxicity in female BALB/c athymic mouse assessed as eosinophil count at 150 mg/kg/day, po (reference value: 0.84 +/- 0.04 %). It is filed as organism-based. The following applies: in vivo.
A further series is filed under the species Capra hircus. Kind of series: Binding affinity to goat brain tubulin assessed as tryptophan fluorescence change incubated for 45 mins by tryptophan quenching assay. The following applies: dose 50-200 µM.
Series [9] can be described thus: Toxicity in female BALB/c athymic mouse assessed as monocyte count at 150 mg/kg/day, po (reference value: 0.39 +/- 0.03 %). The conditions noted are these: in vivo. Type of series: organism-based.
The nature of series [10]: Toxicity in female BALB/c athymic mouse assessed as RBC count at 150 mg/kg/day, po (reference value: 5.84 +/- 0.30 10^6/uL). It is filed as organism-based. The following applies: in vivo.
The nature of series [11]: Toxicity in female BALB/c athymic mouse assessed as platelet at 150 mg/kg/day, po (reference value: 95.11 +/- 7.23 10^3/uL). It is filed as organism-based. The following applies: in vivo.
Series [12] in a line: Toxicity in female BALB/c athymic mouse assessed as hematocrit at 150 mg/kg/day, po (reference value: 41.34 +/- 0.30 %). Type of series: organism-based. The following applies: in vivo.
Series [13] is described as follows: Toxicity in female BALB/c athymic mouse assessed as glucose level at 150 mg/kg/day, po (reference value: 98.47 +/- 3.29 mg/dl). Type of series: organism-based. The conditions noted are these: in vivo.
Series [14] in a line: Toxicity in female BALB/c athymic mouse assessed as hemoglobin concentration at 150 mg/kg/day, po (reference value: 16.59 +/- 0.60 g/dl). The following applies: in vivo. It is filed as organism-based.

Calls of active or inactive are those of the source. The rule behind the calls is not given here.

For the compound `COc1ccc2c(c1OC)C(=O)O[C@@H]2[C@H]1c2c(c(NC(=O)Nc3ccc(Cl)cc3Cl)c3c(c2OC)OCO3)CCN1C`, the Activity in the series on MCF7 amounted to 0.34 cm3; in the series on MDA-MB-231 [2] it was 22%; in series [3], 3.08 mg/dL; in series [4] it was 3.3 mEq/L; in [5] it was 0.702 mg/dL; in [8], 0.9%. In addition, the Activity result in the series filed under Capra hircus is “Dose-dependent-effect”; in [9], 0.48%; in [10] it was 6.29 10^6 /uL; in series [11] it was 89.07 10^3 /uL; in [12] it was 39.29%; in series [13], 98.37 mg/dL. In addition, in series [14], the Activity was 14.6 g/dL. Further, the outcome in the series with MDA-MB-231 [1], with MDA-MB-231 [6] and in the series with MDA-MB-231 [7] was Active.
